Measurements from patent US6277859A, “Morphinan derivative and its pharmaceutical applications” (priority 1992, dated 2001).
Where a name gives a salt, the structure may show the parent alone.

Assays:
[1] = tested on: Wistar rats; assay: Evaluation of diuretic action; type: in vivo, rat (male Wistar); conditions: sc, rat, s.c., urine output for 5 h after 20 ml/kg saline oral; for ED200: read-out: ED200, diuretic action (dose giving urine output of 200, non-dosed group = 100); for ED500: read-out: ED500, diuretic action (dose giving urine output of 500, non-dosed group = 100)
Experimental: Evaluation of Diuretic Action
7-8 week old male Wistar rats were used in this test after prohibiting from drinking water for 1 hour before testing. After discharging any urine accumulated in the bladder by gently stimulating the lower abdomens of the animals, the drug was administered subcutaneously. After 30 minutes, the animals were then forcibly given 20 ml/kg of physiological saline orally. The animals were then placed in metabolic cages immediately after administration of the drug (2 animals/cage) and urine output for 5 hours after loading with physiological saline was measured. Drug efficacy was expressed in the form of those doses resulting in urine outputs of 200 and 500, respectively, when the urine output of a non-dosed group was taken to be 100. Those doses were expressed as the ED200 and ED500 values, respectively.

[2] = target: T1, κ receptor (Mus musculus, UniProt P33534); assay: Ke with norBNI in isolated mouse vas deference preparation; type: cell-based, mouse (male ddy); conditions: for Ke norBNI: norBNI (κ)
T1 construct: The isolated vas deference was filled with Krebes-Henseleit solution; from tissue; host or cells: isolated vas deferens of male ddy mouse
T1 sequence (P33534 whole entry): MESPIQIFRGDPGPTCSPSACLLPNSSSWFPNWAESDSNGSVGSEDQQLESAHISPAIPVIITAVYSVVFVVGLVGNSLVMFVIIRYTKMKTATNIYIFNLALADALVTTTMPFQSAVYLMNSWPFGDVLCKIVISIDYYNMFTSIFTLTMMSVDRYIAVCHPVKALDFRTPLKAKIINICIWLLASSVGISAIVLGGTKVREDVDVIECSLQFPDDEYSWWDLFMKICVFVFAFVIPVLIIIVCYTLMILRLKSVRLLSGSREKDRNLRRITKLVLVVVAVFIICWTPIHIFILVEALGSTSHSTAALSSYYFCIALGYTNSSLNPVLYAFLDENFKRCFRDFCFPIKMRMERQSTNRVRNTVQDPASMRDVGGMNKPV
Experimental: (§1) A male ddy mouse was used in this test. The isolated vas deference was filled with Krebes-Henseleit solution (NaCl 118 mM; KCl 4.7 mM; CaCl2 2.5 mM; KH2 PO4 1.1 mM; NaHCO3 25 mM; and glucose 10 mM) warmed to 37° C. and suspended in a Magnus tube ventilated with 5% carbon dioxide and 95% oxygen. Electrical stimulus was performed at 0.1 Hz for 5.0 ms by means of ring-shaped platinum electrodes located above and below. Tissue contractions were recorded on a polygraph using an isometric transducer.
(§2) Then after adequately washing with nutrient solution and the contraction reaction stabilized, naloxone, a μ […], NTI, a δ […], or norBNI, a κ […], were added and the test compound was again cumulatively added after roughly 20 minutes. The Ke value was calculated using the following calculation formula from the difference in the efficacies of both agonists.
(§3) Ke=[Conc. of added agonist]/(IC50 ratio-1)
(§4) IC50 ratio IC50 in the presence of agonist/IC50 in the absence of agonist

[3] = target: T2, δ receptor (Mus musculus, UniProt P32300); assay: Ke with NTI in isolated mouse vas deference preparation; type: cell-based, mouse (male ddy); conditions: NTI (δ)
T2 construct: The isolated vas deference was filled with Krebes-Henseleit solution; from tissue; host or cells: isolated vas deferens of male ddy mouse
T2 sequence (P32300 whole entry): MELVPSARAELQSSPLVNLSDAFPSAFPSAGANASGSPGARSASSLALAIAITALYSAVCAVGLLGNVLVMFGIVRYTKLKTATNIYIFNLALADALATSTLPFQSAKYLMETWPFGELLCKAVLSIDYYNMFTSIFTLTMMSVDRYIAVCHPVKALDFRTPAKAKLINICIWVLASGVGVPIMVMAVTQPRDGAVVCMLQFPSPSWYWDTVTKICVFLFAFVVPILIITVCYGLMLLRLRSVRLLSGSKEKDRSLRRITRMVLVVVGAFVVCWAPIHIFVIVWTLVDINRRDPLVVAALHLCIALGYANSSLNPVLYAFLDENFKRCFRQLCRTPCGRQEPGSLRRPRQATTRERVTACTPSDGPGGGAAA
Experimental: as §1, §2, §3, §4

[4] = target: T3, μ receptor (Mus musculus, UniProt P42866); assay: Ke with naloxone in isolated mouse vas deference preparation; type: cell-based, mouse (male ddy)
T3 construct: The isolated vas deference was filled with Krebes-Henseleit solution; from tissue; host or cells: isolated vas deferens of male ddy mouse
T3 sequence (P42866 whole entry): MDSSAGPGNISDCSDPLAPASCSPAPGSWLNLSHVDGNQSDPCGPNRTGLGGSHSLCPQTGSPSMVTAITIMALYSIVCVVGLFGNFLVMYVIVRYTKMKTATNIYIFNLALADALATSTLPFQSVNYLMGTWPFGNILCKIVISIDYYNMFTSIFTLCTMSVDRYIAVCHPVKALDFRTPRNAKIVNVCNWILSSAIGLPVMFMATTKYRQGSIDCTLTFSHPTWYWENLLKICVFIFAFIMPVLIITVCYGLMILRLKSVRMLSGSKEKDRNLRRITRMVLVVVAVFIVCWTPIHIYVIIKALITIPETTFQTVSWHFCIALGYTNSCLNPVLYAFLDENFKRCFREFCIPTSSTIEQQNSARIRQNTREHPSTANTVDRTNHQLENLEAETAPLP
Experimental: as §1, §2, §3, §4

Compound | ED200 [1] | selective agonist for κ receptors (in words) [2] | Ke norBNI [2] | Ke NTI [3] | Ke Naloxone [4] | ED500 [1]
CN(C(=O)Cc1ccc(Br)cc1)[C@H]1CC[C@@]2(O)[C@H]3Cc4ccc(O)c5c4[C@@]2(CCN3CC2CC2)[C@H]1O5 [Compound 28, 17-cyclopropylmethyl-3,14β-dihydroxy-4,5α-epoxy-6α-(N-methyl-4-bromophenylacetamido)morphinan.hydrobromide] | 0.02 mg/kg |  |  |  |  | 
CCCCCCC(=O)N(C)[C@H]1CC[C@@]2(O)[C@H]3Cc4ccc(O)c5c4[C@@]2(CCN3CC2CC2)[C@H]1O5 [Compound 46, 17-cyclopropylmethyl-3,14β-dihydroxy-4,5α-epoxy-6α-(N-methylheptanamido)morphinan.hydrochloride] |  | selective agonists for κ receptors | 0.440 nM |  |  | 
CN(C(=O)/C=C/C1CCCCC1)[C@H]1CC[C@@]2(O)[C@H]3Cc4ccc(O)c5c4[C@@]2(CCN3CC2CC2)[C@H]1O5 [Compound 50, 17-cyclopropylmethyl-4,5α-epoxy-3,14β-dihydroxy-6α-(N-methyl-trans-3-cyclohexylacrylamido)morphinan.hydrochloride] | 0.0021 mg/kg |  |  |  |  | 
O=C(Cc1ccc(Cl)c(Cl)c1)N[C@H]1CC[C@@]2(O)[C@H]3Cc4ccc(O)c5c4[C@@]2(CCN3CC2CC2)[C@H]1O5 [Compound 52, 17-cyclopropylmethyl-4,5α-epoxy-3,14β-dihydroxy-6α-(3,4-dichlorophenylacetoamido) morphinan.hydrochloride] |  | selective agonists for κ receptors |  |  |  | 
CN(C(=O)Cc1ccc(Cl)c(Cl)c1)[C@@H]1CC[C@@]2(O)[C@H]3Cc4ccc(O)c5c4[C@@]2(CCN3CC2CC2)[C@H]1O5 [Compound 53, 17-cyclopropylmethyl-4,5α-epoxy-3,14β-dihydroxy-6β-(N-methyl-3,4-dichlorophenylacetoamido)morphinan.hydrochloride] |  |  | 0.21 nM | 1676 nM |  | 
CN(C(=O)OCc1ccccc1)[C@@H]1CC[C@@]2(O)[C@H]3Cc4ccc(O)c5c4[C@@]2(CCN3CC2CC2)[C@H]1O5 [Compound 56, 17-cyclopropylmethyl-3,14β-dihydroxy-4,5α-epoxy-60-(N-methylbenzyloxycarbamido)morphinan.hydrochloride] | 0.0028 mg/kg |  |  |  |  | 
CN(C(=O)CCc1ccccc1)[C@@H]1CC[C@@]2(O)[C@H]3Cc4ccc(O)c5c4[C@@]2(CCN3CC2CC2)[C@H]1O5 [Compound 57, 17-cyclopropylmethyl-3,14β-dihydroxy-4,5α-epoxy-60-(N-methyl-3-phenylpropionamido) morphinan.hydrochloride] |  | selective agonists for κ receptors | 0.0124 nM | 747 nM |  | 
CCCCOC(=O)N(C)[C@@H]1CC[C@@]2(O)[C@H]3Cc4ccc(O)c5c4[C@@]2(CCN3CC2CC2)[C@H]1O5 [Compound 59, 17-cyclopropylmethyl-3,14β-dihydroxy-4,5α-epoxy-6β-(N-methylbutyroxycarbamido)morphinan.tartrate] |  | selective agonists for κ receptors | 0.151 nM | 47.3 nM | 21.3 nM | 
CCCCCC(=O)N(C)[C@@H]1CC[C@@]2(O)[C@H]3Cc4ccc(O)c5c4[C@@]2(CCN3CC2CC2)[C@H]1O5 [Compound 62, 17-cyclopropylmethyl-3,14β-dihydroxy-4,5α-epoxy-6β-(N-methylhexanamido)morphinan.tartrate] |  | selective agonists for κ receptors | 0.203 nM | 90.2 nM |  | 
CN(C(=O)/C=C/c1ccc(C(F)(F)F)cc1)[C@@H]1CC[C@@]2(O)[C@H]3Cc4ccc(O)c5c4[C@@]2(CCN3CC2CC2)[C@H]1O5 [Compound 73, 17-cyclopropylmethyl-3,14,β-dihydroxy-4,5α-epoxy-6β-(N-methyl-4-trifluoromethylcinnamamido) morphinan.tartrate] |  | selective agonists for κ receptors | 0.272 nM | 78 nM | 524 nM | 
CN(C(=O)/C=C/c1ccc(Cl)c(Cl)c1)[C@H]1CC[C@@]2(O)[C@H]3Cc4ccc(O)c5c4[C@@]2(CCN3CC2CC2)[C@H]1O5 [Compound 86, 17-cyclopropylmethyl-3,14β-dihydroxy-4,5α-epoxy-6α-(N-methyl-3,4-dichlorocinnamamido) morphinan.hydrochloride] | 0.0057 mg/kg |  |  |  |  | 
CN(C(=O)/C=C/c1ccsc1)[C@H]1CC[C@@]2(O)[C@H]3Cc4ccc(O)c5c4[C@@]2(CCN3CC2CC2)[C@H]1O5 [Compound 91, 17-cyclopropylmethyl-3,14β-dihydroxy-4,5α-epoxy-6α-[N-methyl-trans-3-(3-thienyl)acrylamido]morphinan.tartrate] | 0.0094 mg/kg | selective agonists for κ receptors | 0.699 nM | 450 nM |  | 0.96 mg/kg
CCC/C=C/C(=O)N(C)[C@H]1CC[C@@]2(O)[C@H]3Cc4ccc(O)c5c4[C@@]2(CCN3CC2CC2)[C@H]1O5 [Compound 95, 17-cyclopropylmethyl-3,14β-dihydroxy-4,5α-epoxy-6α-(N-methyl-trans-2-hexenamido)morphinan.tartrate] | 0.0028 mg/kg |  |  |  |  | 
CN(C(=O)CC(=O)c1ccccc1)[C@@H]1CC[C@@]2(O)[C@H]3Cc4ccc(O)c5c4[C@@]2(CCN3CC2CC2)[C@H]1O5 [Compound 103, 17-cyclopropylmethyl-3,14β-dihydroxy-4,5α-epoxy-6β-(N-methylbenzoylacetamido)morphinan.tartrate] |  | selective agonists for κ receptors | 0.657 nM |  |  | 
CN(C(=O)/C=C/c1cccc([N+](=O)[O-])c1)[C@@H]1CC[C@@]2(O)[C@H]3Cc4ccc(O)c5c4[C@@]2(CCN3CC2CC2)[C@H]1O5 [Compound 104, 17-cyclopropylmethyl-3,14β-dihydroxy-4,5α-epoxy-6β-(N-methyl-3-nitrocinnamamido)morphinan.tartrate] |  |  | 1.40 nM | 89 nM | 185 nM | 
CN(C(=O)Cc1ccc(F)c(F)c1)[C@H]1CC[C@@]2(O)[C@H]3Cc4ccc(O)c5c4[C@@]2(CCN3CC2CC2)[C@H]1O5 [Compound 105, 17-cyclopropylmethyl-3,14β-dihydroxy-4,5α-epoxy-6α-(N-methyl-3,4-difluorophenylacetamido)morphinan.hydrochloride] | 0.019 mg/kg |  |  |  |  | 3.3 mg/kg
CN(C(=O)Cc1csc2ccccc12)[C@H]1CC[C@@]2(O)[C@H]3Cc4ccc(O)c5c4[C@@]2(CCN3CC2CC2)[C@H]1O5 [Compound 107, 17-cyclopropylmethyl-3,14β-dihydroxy-4,5α-epoxy-6α-(N-methyl-3-benzo[b]thienylacetamido)morphinan.hydrochloride] | 0.0061 mg/kg |  |  |  |  | 0.2 mg/kg
CN(C(=O)Cc1cccc(C(F)(F)F)c1)[C@H]1CC[C@@]2(O)[C@H]3Cc4ccc(O)c5c4[C@@]2(CCN3CC2CC2)[C@H]1O5 [Compound 108, 17-cyclopropylmethyl-3,14β-dihydroxy-4,5α-epoxy-6α-(N-methyl-3-trifluoromethylphenylacetamido) morphinan.hydrochloride] | 0.021 mg/kg |  |  |  |  | 
C=CCN1CC[C@]23c4c5ccc(O)c4O[C@H]2[C@@H](N(C)C(=O)Cc2ccc(Cl)c(Cl)c2)CC[C@@]3(O)[C@H]1C5 [Compound 122, 17-allyl-3,14β-dihydroxy-4,5α-epoxy-6α-(N-methyl-3,4-dichlorophenylacetamido)morphinan.hydrochloride] |  | selective agonists for κ receptors | 0.358 nM | 42.7 nM | 59.5 nM | 
